Test system: Staphylococcus aureus
Assay: Antibacterial activity against methicillin-resistant Staphylococcus aureus harboring 41.7-kilobase conjugative staphylococcal multiresistance plasmid pPR9 conferring high-level mupirocin resistance
Assay type: functional

Compound: C/C(=C\C(=O)OCCCCCCCCC(=O)O)C[C@@H]1OC[C@H](C[C@@H]2O[C@H]2[C@@H](C)[C@H](C)O)[C@@H](O)[C@H]1O [MUPIROCIN]
- MIC: ≥ 1020 µg/mL
